The source of these data is patent publication US20230381142A1, “ANTILEISHMANIAL COMPOUNDS, COMPOSITIONS AND USE THEREOF” (TRUSTEES OF BOSTON UNIVERSITY, priority 2022, published 2023).

Series [1] concerns L. donovani intracellular amastigotes infecting THP-1 macrophages. Put plainly: GSK intramacrophage L. donovani assay (LD AMMAC, inMac; Assay Conditions C). Particulars: Leishmania donovani. Format: cell-based. Put shortly: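 L. donovani amastigotes within THP-1 macrophages; EC50 based on average intracellular amastigotes per infected cell (AMMAC). Infected-cell percentage (INFCELL) and host-cell number (MAC) also read, the latter as toxicity output.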

Series [2] deals with L. donovani promastigotes (strain 1S/Cl2D). Put plainly: Promastigote assay, CellTiter-Glo (Assay Conditions F). As to conditions: Leishmania donovani; read-out: Extracellular promastigote EC50. It is filed as cell-based. Here is the method: (§1) Assay Conditions F: Leishmania promastigotes (L. major: strain LV39; L. donovani, strain 1S/Cl2D) were maintained as previously described in PloS Negl Trop Dis (2015) 9(3):e0003588 and Pathogens (2021) 10(5):593) at 28° C. in M199 media supplemented with glutamine, adenosine, folic acid, hemin, HEPES, 10% Fetal Bovine Serum (Sigma-Aldrich, cat. no. F2442) and 1% Penicillin-Streptomycin (Gibco, cat. no. 15140122). For the promastigote assay, we followed the method previously described in PloS Negl Trop Dis (2011) 5(7):e1253. Briefly, promastigotes were incubated with the compounds for 72 h at 27° C., then lysed by adding 50 μL of CellTiter-Glo (Promega) and placed on an orbital shaker for 5 min at room temperature. After lysis, the resulting ATP-bioluminescence was measured using the Analyst HT plate reader (Molecular Devices).
In general terms: Cellular ATP, detected with luciferase, serves as a proxy for viable cell number.

The test system of series [3] is L. major promastigotes (strain LV39). The series is described as above. It is filed as cell-based. Particulars: Leishmania major; read-out: Extracellular promastigote EC50. The procedure:
as §1

Series [4] has as its system L. major (strain LV39) intracellular amastigotes infecting THP-1 cells. Put plainly: High content intracellular amastigote assay in THP-1 cells (Assay Conditions B). It is filed as cell-based, Leishmania major. Particulars: Leishmania major; THP-1 host cells. The procedure:
Assay Conditions B: THP-1 cells (human acute monocytic leukemia cell line—ATCC TIB202) were grown in RPMI supplemented with 10% Fetal Bovine Serum (FBS) and 50 μM 2-mercaptoethanol at 37° C. in 5% CO2. THP-1 were seeded in microwell plates at 5×10^5 cells/mL density and treated with 0.1 μM phorbol myristate acetate (PMA, Sigma) at 37° C. for 48 h for differentiation into adherent, non-dividing macrophages. After activation by PMA, cells were washed and incubated with complete RPMI medium containing stationary phase Leishmania promastigotes (L. major: strain LV39; L. donovani, strain 1S/Cl2D) at a 1:15 parasite-cell ratio. Compounds were added and incubated at 37° C. for 72 h. Cells were then washed with phosphate-buffered saline (PBS), fixed for 30 minutes with 4% formaldehyde, rinsed again with PBS, stained for 2 h with 4′,6′-diamidino-2-phenylindole (DAPI 300 nM) and finally washed with PBS. In a collaborative effort to identify new antileishmanial chemotypes with minimal host cell cytotoxicity, compounds from the Boston University Center for Molecular Discovery (BUCMD) screening collection were assessed in a phenotypic, high content primary screen at the University of California's Center for Discovery and Innovation in Parasitic Diseases (CDIPD) for the ability to inhibit growth of L. donovani intracellular amastigotes infecting THP-1 cells. […] Dose-response testing in L. donovani (both intracellular amastigotes and promastigotes) confirmed concentration-dependent growth inhibition of both morphologies of the parasite at low micromolar EC50 values for both compounds (Table 1).

Series [5] is described as follows: Plasma protein binding (RED). Format: in vitro ADME. The procedure:
The unbound fraction of compound 1 in plasma was measured using a commercial RED (Rapid Equilibrium Dialysis) plate with inserts (Thermo) with a molecular weight membrane cut off of 8K. The relevant volume of spiked sample matrix was added into the corresponding sample chambers of the RED insert. Three volume equivalents of dialysis buffer were added to the buffer chamber. The dialysis plate was sealed and incubated at 37° C. on a plate shaker for approximately 4 h at 100 rpm. An equivalent volume was removed from each of the three buffer sample chambers and placed into its own well in a clean plate. A specific volume of control matrix was added to each buffer sample for matrix matching. Next, >3× volume of precipitation solvent (acetonitrile+internal standard) was added and the plate was centrifuged. A measured volume of the resulting supernatants was transferred into a clean plate and a specific volume of analytical grade water was added to all samples. Samples were analyzed using a compound-specific LC-MS/MS method to generate analyte peak area ratios which are representative of bound and free drug.

A short description of series [6]: Solubility in Fasted Simulated Intestinal Fluid (FaSSIF). Format: physicochemical. Particulars: thermodynamic from solid. The procedure:
Solubility of compounds using ChemiLuminescent Nitrogen Detection (CLND) was measured as described. Solubility of compounds using Charged Aerosol Detection (CAD) was measured as described. Solubility of solid compounds in Fasted Simulated Intestinal Fluid (FaSSIF) was measured as described.

The nature of series [7]: Artificial membrane permeability (AMP). Format: in vitro ADME. As to conditions: PAMPA, pH 7.4. In short, it runs like this:
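Passive permeation through 1.8% phosphatidylcholine in 1% decane membrane, 50 mM phosphate buffer pH 7.4 on donor and receiver sides. After 45 min pre-shaking, compounds incubated 3 h at room temperature with shaking, in duplicate; donor and receiver solutions quantified by LC/MS.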
Background: PAMPA measures passive passage across an artificial lipid membrane.

For another series, the target named is human serum albumin (Homo sapiens, UniProt P02768). Put plainly: Human serum albumin (HSA) binding, chromatographic. Format: in vitro ADME. The procedure: The percentage of compound bound to human serum albumin was measured using a chromatographic method as described. Briefly, each compound was assayed on an immobilized HSA column and gradient retention times measured, with chromatographic peak detection by UV. Each retention time was then converted to a % HSA bound value using a calibration set of compounds with a known % HSA binding.

The mark [8] stands for this setting: growth inhibition of L. donovani intracellular amastigotes infecting THP-1 macrophages, read-out: LD AMMAC EC50.

In brackets after ≈: the same amount, converted by molar mass. Like-named read-outs stand apart in the source and are kept apart here.

human serum albumin, sequence (P02768 25-609): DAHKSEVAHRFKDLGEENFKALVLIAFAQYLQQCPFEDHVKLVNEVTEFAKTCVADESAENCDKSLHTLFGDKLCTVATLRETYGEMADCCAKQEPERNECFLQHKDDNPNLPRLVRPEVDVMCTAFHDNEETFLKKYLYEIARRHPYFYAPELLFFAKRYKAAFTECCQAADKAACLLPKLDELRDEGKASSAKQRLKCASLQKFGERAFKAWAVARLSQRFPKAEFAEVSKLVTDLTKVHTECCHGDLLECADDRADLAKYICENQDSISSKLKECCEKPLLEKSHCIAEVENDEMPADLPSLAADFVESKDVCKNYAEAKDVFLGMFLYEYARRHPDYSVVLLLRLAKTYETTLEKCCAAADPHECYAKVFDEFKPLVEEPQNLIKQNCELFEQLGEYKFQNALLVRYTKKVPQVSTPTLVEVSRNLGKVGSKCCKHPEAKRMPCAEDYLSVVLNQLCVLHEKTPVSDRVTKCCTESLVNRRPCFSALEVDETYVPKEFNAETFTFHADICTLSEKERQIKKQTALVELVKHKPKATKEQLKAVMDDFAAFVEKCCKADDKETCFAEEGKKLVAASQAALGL

For `COc1ccc(N2C(=O)c3[nH]nc(CC(C)C)c3C2c2ccc(F)cc2)cc1` (racemic) [Compound 1, 4-(4-fluorophenyl)-3-isobutyl-5-(4-methoxyphenyl)-4,5-dihydropyrrolo[3,4-c]pyrazol-6(1H)-one], inhibition in series [1] (THP-1) was half-maximal at 2500 nM (IC50). In addition, the EC50 – broadly, the midpoint of the concentration-response curve – in series [1] (THP-1, GSK lead selection criteria, read-out: Antiparasitic activity EC50, L. donovani amastigotes) was 2500 nM; in series [1] (setting [8]) it was 2500 nM; in series [2] it was 2000 nM; in series [3], 4400 nM; in series [4] it was 1300 nM. Also, the fraction unbound (in general, free concentration divided by total concentration) at 4 h in series [5] was 0.025. Also, in series [6], the solubility (usually the concentration that dissolves in the medium under given conditions) is 130 µg/mL (≈ 343 µM). The Papp (usually a coefficient for how fast a substance crosses the barrier) at 3 h in series [7] was 34.5 ×10⁻⁶ cm/s. On human serum albumin, the “HSA Binding” value came out at 96.4%.
On to `COc1ccc(N2C(=O)c3[nH]nc(CC(C)C)c3C2c2ccccc2)cc1` (centres unmarked) [Compound 2], for which the midpoint of inhibition in series [1] (THP-1), the IC50, lay at 3200 nM. Also, the 50% effective concentration (EC50) in series [1] (setting [8]) is 3200 nM; in series [2], 2400 nM; in series [3] it was 4200 nM; in series [4], 1700 nM. In series [7], the apparent permeability (Papp) at 3 h was 37 ×10⁻⁶ cm/s. The “HSA Binding” value at human serum albumin came to 95.8%.
